According to PubChem BioAssay AID2060897 (Molecular Pharmacology Branch, DTP, NCI, 2025):
Where “and” joins values, the source holds several entries; their conditions need not be identical. Equal entries are not always repeated.

System: 966289-007-R4-J1-PDC complex spheroid viability
Assay: Anticancer human tumor 966289-007-R4-J1-PDC patient-derived pancreatic adenocarcinoma cell line growth inhibition [RAS]
Details: for viability, T/C: stronger effect = lower value; active = viability on the fitted dose curve at most 10% of control; inactive = the rest
Procedure, shortened: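 Multi-cell-type spheroids: tumor cells plus HUVEC endothelial cells and mesenchymal stem cells. RAS-pathway inhibitors were combined with targeted agents, each dosed in half-log steps down from clinical Cmax, or from 10 microM when Cmax was unknown.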

[1] = curve of first compound, second compound 0.0316 µM
[2] = curve of first compound, second compound 0.1 µM
[3] = curve of first compound, second compound 0.316 µM
[4] = curve of first compound, second compound 1 µM
[5] = second compound 0.0316 µM, first compound 0.0316 µM
[6] = second compound 0.0316 µM, first compound 0.1 µM
[7] = second compound 0.0316 µM, first compound 0.316 µM
[8] = second compound 0.0316 µM, first compound 1 µM
[9] = second compound 0.1 µM, first compound 0.0316 µM
[10] = second compound 0.1 µM, first compound 0.1 µM
[11] = second compound 0.1 µM, first compound 0.316 µM
[12] = second compound 0.1 µM, first compound 1 µM
[13] = second compound 0.316 µM, first compound 0.0316 µM
[14] = second compound 0.316 µM, first compound 0.1 µM
[15] = second compound 0.316 µM, first compound 0.316 µM
[16] = second compound 0.316 µM, first compound 1 µM
[17] = second compound 1 µM, first compound 0.0316 µM
[18] = second compound 1 µM, first compound 0.1 µM
[19] = second compound 1 µM, first compound 0.316 µM
[20] = second compound 1 µM, first compound 1 µM
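Also: spheroids exposed to agents for one week before readout.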
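For viability, T/C in this document: percent viability relative to DMSO vehicle control wells as 100%.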

CCC(CC)c1cc(NC2CCC(N)C2)n2nccc2n1 (stereo not drawn) + CCn1c(-c2cccnc2C(C)OC)c2c3cc(ccc31)N1CCOC(CC(NC(=O)C(C(C)C)N(C)C(=O)C3(F)CCN(C(=O)C#CC(C)(C)N(C)C)CC3)C(=O)N3CCCC(N3)C(=O)OCC(C)(C)C2)C1
1420 nM: IC50 (curve of first compound, second compound 0.003 µM)
active: viability, T/C (second compound 0.000949 µM, first compound 3.16 µM) 1.1% | viability, T/C (second compound 0.000949 µM, first compound 10 µM) 1.22% | viability, T/C (second compound 0.003 µM, first compound 3.16 µM) 1.2% | viability, T/C (second compound 0.003 µM, first compound 10 µM) 0.93% | viability, T/C (second compound 0.00949 µM, first compound 3.16 µM) 1.25% | viability, T/C (second compound 0.00949 µM, first compound 10 µM) 1.32% | viability, T/C (second compound 0.03 µM, first compound 3.16 µM) 1.48% | viability, T/C (second compound 0.03 µM, first compound 10 µM) 1.83% | viability, T/C (second compound 0.0949 µM, first compound 3.16 µM) 0.98% | viability, T/C (second compound 0.0949 µM, first compound 10 µM) 0.98% | viability, T/C (second compound 0.3 µM, first compound 3.16 µM) 1.23% | viability, T/C (second compound 0.3 µM, first compound 10 µM) 1.13%
inactive: viability, T/C (second compound 0.000949 µM, first compound 0.0316 µM) 113% | viability, T/C (second compound 0.000949 µM, first compound 0.1 µM) 87% | viability, T/C (second compound 0.000949 µM, first compound 0.316 µM) 115% | viability, T/C (second compound 0.000949 µM, first compound 1 µM) 76.3% | viability, T/C (second compound 0.003 µM, first compound 0.0316 µM) 99.7% | viability, T/C (second compound 0.003 µM, first compound 0.1 µM) 82.4% | viability, T/C (second compound 0.003 µM, first compound 0.316 µM) 66.7% | viability, T/C (second compound 0.003 µM, first compound 1 µM) 71.3% | viability, T/C (second compound 0.00949 µM, first compound 0.0316 µM) 82.1% | viability, T/C (second compound 0.00949 µM, first compound 0.1 µM) 122% | viability, T/C (second compound 0.00949 µM, first compound 0.316 µM) 96.5% | viability, T/C (second compound 0.00949 µM, first compound 1 µM) 75.1% | viability, T/C (second compound 0.03 µM, first compound 0.0316 µM) 66.9% | viability, T/C (second compound 0.03 µM, first compound 0.1 µM) 72.1% | viability, T/C (second compound 0.03 µM, first compound 0.316 µM) 123% | viability, T/C (second compound 0.03 µM, first compound 1 µM) 52.9% | viability, T/C (second compound 0.0949 µM, first compound 0.0316 µM) 64% | viability, T/C (second compound 0.0949 µM, first compound 0.1 µM) 106% | viability, T/C (second compound 0.0949 µM, first compound 0.316 µM) 132% | viability, T/C (second compound 0.0949 µM, first compound 1 µM) 34.6% | viability, T/C (second compound 0.3 µM, first compound 0.0316 µM) 93.5% | viability, T/C (second compound 0.3 µM, first compound 0.1 µM) 94.5% | viability, T/C (second compound 0.3 µM, first compound 0.316 µM) 98.5% | viability, T/C (second compound 0.3 µM, first compound 1 µM) 12.7%
1500 nM: IC50 (curve of first compound, second compound 0.000949 µM)
1070 nM: IC50 (curve of first compound, second compound 0.03 µM)
1480 nM: IC50 (curve of first compound, second compound 0.00949 µM)
764 nM: IC50 (curve of first compound, second compound 0.0949 µM)
595 nM: IC50 (curve of first compound, second compound 0.3 µM)

CCN1CCN(Cc2ccc(Nc3ncc(F)c(-c4cc(F)c5nc(C)n(C(C)C)c5c4)n3)nc2)CC1
> 1000 nM: IC50 (curve of compound)
inactive: viability, T/C (compound 0.00316 µM) 113% [middle of 4 runs] | viability, T/C (compound 0.01 µM) 100% [middle of 4 runs] | viability, T/C (compound 0.316 µM) 94.4% [middle of 4 runs] | viability, T/C (compound 1 µM) 84% [middle of 4 runs]

CCN1CCN(Cc2ccc(Nc3ncc(F)c(-c4cc(F)c5nc(C)n(C(C)C)c5c4)n3)nc2)CC1 + C=CC(=O)N1CCN(c2nc(OCC3CCCN3C)nc3c(F)c(-c4nc(N)cc(C)c4C(F)(F)F)c(Cl)cc23)C(C)C1
> 1000 nM: IC50 (curve of first compound, second compound 0.00316 µM) | IC50 (curve of first compound, second compound 0.01 µM) | IC50 [1] | IC50 [2] | IC50 [3] | IC50 [4]
inactive: viability, T/C (second compound 0.00316 µM, first compound 0.00316 µM) 109% | viability, T/C (second compound 0.00316 µM, first compound 0.01 µM) 110% | viability, T/C (second compound 0.00316 µM, first compound 0.0316 µM) 101% | viability, T/C (second compound 0.00316 µM, first compound 0.1 µM) 95.8% | viability, T/C (second compound 0.00316 µM, first compound 0.316 µM) 83.5% | viability, T/C (second compound 0.00316 µM, first compound 1 µM) 76.2% | viability, T/C (second compound 0.01 µM, first compound 0.00316 µM) 96% | viability, T/C (second compound 0.01 µM, first compound 0.01 µM) 110% | viability, T/C (second compound 0.01 µM, first compound 0.0316 µM) 120% | viability, T/C (second compound 0.01 µM, first compound 0.1 µM) 107% | viability, T/C (second compound 0.01 µM, first compound 0.316 µM) 99.1% | viability, T/C (second compound 0.01 µM, first compound 1 µM) 72.6% | viability, T/C (second compound 0.0316 µM, first compound 0.00316 µM) 116% | viability, T/C (second compound 0.0316 µM, first compound 0.01 µM) 126% | viability, T/C [5] 106% | viability, T/C [6] 113% | viability, T/C [7] 84.8% | viability, T/C [8] 72.8% | viability, T/C (second compound 0.1 µM, first compound 0.00316 µM) 107% | viability, T/C (second compound 0.1 µM, first compound 0.01 µM) 121% | viability, T/C [9] 121% | viability, T/C [10] 109% | viability, T/C [11] 78.8% | viability, T/C [12] 78.7% | viability, T/C (second compound 0.316 µM, first compound 0.00316 µM) 106% | viability, T/C (second compound 0.316 µM, first compound 0.01 µM) 103% | viability, T/C [13] 120% | viability, T/C [14] 105% | viability, T/C [15] 89.4% | viability, T/C [16] 73.4% | viability, T/C (second compound 1 µM, first compound 0.00316 µM) 98.5% | viability, T/C (second compound 1 µM, first compound 0.01 µM) 98.6% | viability, T/C [17] 120% | viability, T/C [18] 102% | viability, T/C [19] 79% | viability, T/C [20] 77.2%

Nc1ccn(C2OC(CO)C(O)C2(F)F)c(=O)n1 (stereo not drawn)
active: viability, T/C (compound 0.0316 µM) 1.12% and 1.45% (2×) and 1.74% | viability, T/C (compound 0.1 µM) 1.25% [middle of 4 runs] | viability, T/C (compound 0.316 µM) 0.85% and 1.16% and 1.48% | viability, T/C (compound 1 µM) 1.33% [middle of 4 runs]
inactive: viability, T/C (compound 0.00316 µM) 100% and 92.9% and 103% (2×) | viability, T/C (compound 0.01 µM) 30.1% [middle of 4 runs]
7.29 nM [middle of 4 runs]: IC50 (curve of compound)

C[C@@H](NC(=O)c1ncnc(N)c1Cl)c1ncc(C(=O)Nc2cc(C(F)(F)F)c(Cl)cn2)s1 + C#Cc1c(F)ccc2cc(O)cc(-c3ncc4c(N5CC6CCC(C5)N6)nc(OCC56CCCN5CC(F)C6)nc4c3F)c12
> 10000 nM: IC50 [1] | IC50 [2] | IC50 [3] | IC50 [4] | IC50 (curve of first compound, second compound 3.16 µM) | IC50 (curve of first compound, second compound 10 µM)
inactive: viability, T/C [5] 109% | viability, T/C [6] 118% | viability, T/C [7] 130% | viability, T/C [8] 119% | viability, T/C (second compound 0.0316 µM, first compound 3.16 µM) 117% | viability, T/C (second compound 0.0316 µM, first compound 10 µM) 86.8% | viability, T/C [9] 111% | viability, T/C [10] 114% | viability, T/C [11] 103% | viability, T/C [12] 106% | viability, T/C (second compound 0.1 µM, first compound 3.16 µM) 109% | viability, T/C (second compound 0.1 µM, first compound 10 µM) 95.7% | viability, T/C [13] 105% | viability, T/C [14] 126% | viability, T/C [15] 124% | viability, T/C [16] 111% | viability, T/C (second compound 0.316 µM, first compound 3.16 µM) 112% | viability, T/C (second compound 0.316 µM, first compound 10 µM) 75.7% | viability, T/C [17] 105% | viability, T/C [18] 123% | viability, T/C [19] 134% | viability, T/C [20] 130% | viability, T/C (second compound 1 µM, first compound 3.16 µM) 130% | viability, T/C (second compound 1 µM, first compound 10 µM) 87.6% | viability, T/C (second compound 3.16 µM, first compound 0.0316 µM) 119% | viability, T/C (second compound 3.16 µM, first compound 0.1 µM) 110% | viability, T/C (second compound 3.16 µM, first compound 0.316 µM) 118% | viability, T/C (second compound 3.16 µM, first compound 1 µM) 122% | viability, T/C (second compound 3.16 µM, first compound 3.16 µM) 123% | viability, T/C (second compound 3.16 µM, first compound 10 µM) 86% | viability, T/C (second compound 10 µM, first compound 0.0316 µM) 107% | viability, T/C (second compound 10 µM, first compound 0.1 µM) 108% | viability, T/C (second compound 10 µM, first compound 0.316 µM) 134% | viability, T/C (second compound 10 µM, first compound 1 µM) 125% | viability, T/C (second compound 10 µM, first compound 3.16 µM) 124% | viability, T/C (second compound 10 µM, first compound 10 µM) 91.3%
